According to patent US5244886A, “11β-phenyl-14βH steroids” (Schering Aktiengesellschaft, priority 1988, dated 1993):

What follows are compounds tested on Antiglucocorticoid effectiveness (assay: Antiglucocorticoid effectiveness in % of RU 486). Conditions: RU 486 effectiveness = 100%.
Text: Antiglucocorticoid effectiveness of compounds A to G;
the effectiveness is indicated in % of th

Structure (SMILES)	Antiglucocorticoid effectiveness (in % of RU 486)
CC#C[C@@]1(O)CC[C@@H]2[C@@H]3CCC4=CC(=O)CCC4=C3[C@@H](c3ccc(C(C)=O)cc3)C[C@@]21C [A, 11beta-(4-acetylphenyl)-17alpha-hydroxy-17-(prop-1-inyl)-14beta-estra-4,9-dien-3-one]	1%
C#CC[C@@]1(O)CC[C@@H]2[C@@H]3CCC4=CC(=O)CCC4=C3[C@@H](c3ccc(C(C)=O)cc3)C[C@@]21C [B, 11beta-(4-acetylphenyl)-17alpha-hydroxy-17-(prop-2-inyl)-14beta-estra-4,9-dien-3-one]	1%
COc1ccc2c(c1)C[C@]13CCC(=O)C=C1CC[C@@H]1[C@@H]3[C@@H]2C[C@@]2(C)[C@@H]1CC[C@]2(O)CCCO [C, 17-hydroxy-17beta-(3-hydroxypropyl)-11beta,19-(4-methoxy-o-phenylene)-14beta-androst-4-en-3-one]	0%
C[C@]12C[C@@H]3c4ccc(-c5cccnc5)cc4C[C@]45CCC(=O)C=C4CC[C@H]([C@H]35)[C@H]1CC[C@]2(O)CCCO [D, 17-hydroxy-17beta-(3-hydroxypropyl)-11beta,19-(4-(3-pyridyl)-o-phenylene]-14beta-androst-4-en-3-one]	0%
C=Cc1ccc2c(c1)C[C@]13CCC(=O)C=C1CC[C@@H]1[C@@H]3[C@@H]2C[C@@]2(C)[C@@H]1CC[C@]2(O)CCCO [E, 17-hydroxy-17beta-(3-hydroxypropyl)-11beta,19-(4-vinyl-o-phenylene)-14beta-androst-4-en-3-one]	1%
CN(C)c1ccc([C@H]2C[C@@]3(C)[C@H](CC[C@]3(O)CCCO)[C@@H]3CCC4=CC(=O)CCC4=C32)cc1 [F, 11beta-(4-dimethylaminophenyl)-17alpha-hydroxy-17-(3-hydroxypropyl)-14beta-estra-4,9-dien-3-one, reference compound]	2%

These compounds were tested on mammary gland (tubulo-alveolar gland end pieces) (assay: Antiproliferative potency of progesterone antagonists on the mammary gland, bioassay in ovariectomized rats (whole mount, inguinal mammary gland)). Conditions: 3 days, estrone 10 micrograms + progesterone 3 mg, antagonist 1 mg/animal/day, relative to G = 100%.
Format: in vivo, rat
Procedure: The antiproliterative potency of progesterone antagonists on the mammary gland was determined in a bioassay. For this purpose, ovariectomized rats were substituted for 3 days with estrone (10 micrograms) and progesterone (3 mg) and another group at the same time was treated with the following progesterone antagonists (1 mg/animal/day):
The entire inguinal mammary gland was dissected by performance of the "whole mount" technique (Lyons and Johnson, 1952). Of six animals, the number of tubulo-alveolar gland end pieces is determined by 40 times magnification.
The antiproliterative potency is expressed in percent of the inhibition of the tubulo-alveolar end pieces corresponding to the following formula:
(estrone (E)+progesterone (P))-(E+P+G)=100% of treated animals
(E+P)-(test compound H or I)=X%

Structure (SMILES)	% inhibition of the tubulo-alveolar end pieces
CC#C[C@]1(O)CC[C@H]2[C@@H]3CCC4=CC(=O)CCC4=C3[C@@H](c3ccc(C(C)=O)cc3)C[C@@]21C [G, 11beta-(4-acetylphenyl)-17beta-hydroxy-17alpha-(1-propinyl)-4,9-estradien-3-one]	100%
C[C@]12C[C@H](c3ccc(-c4cccnc4)cc3)C3=C4CCC(=O)C=C4CC[C@H]3[C@H]1CC[C@]2(O)CCCO [H, 11beta-[4-(3-pyridyl)phenyl]-17alpha-hydroxy-17-(3-hydroxypropyl)-14beta-estra-4,9-dien-3-one]	92%
CN(C)c1ccc([C@H]2C[C@@]3(C)[C@H](CC[C@]34CCCO4)[C@@H]3CCC4=CC(=O)CCC4=C32)cc1 [I, 11beta-(4-dimethylaminophenyl)-4,5-dihydro-spiro[14beta-estra-4,9-diene-17alpha,2'(3'H)-furan]-3-one]	13%
